Test results taken from PubChem BioAssay (NCI).
Several values for one entry are separate records, joined by “and”; a condition that tells them apart may be missing. Equal values may be shown once.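 Step 1: Grow cells in 96-well plates. Step 2: Expose to compound for 48 hours at 5 concentrations. Step 3: Interpolate endpoints linearly; if unreached, use highest concentration. Here, GI50 denotes the concentration required for 50% inhibition of growth. Definition used: TGI = concentration required for complete inhibition of growth.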

What was measured:
Test in all cases: inhibition of tumour cell growth, NCI panel, 48 h
A549 NSCLC = tested on: A549 NSCLC
LOX IMVI melanoma = tested on: LOX IMVI melanoma
MCF7 breast = tested on: MCF7 breast
MDA-MB-435 = tested on: MDA-MB-435
MOLT-4 leukemia = tested on: MOLT-4 leukemia
NCI-H23 lung = tested on: NCI-H23 lung
OVCAR-5 ovarian = tested on: OVCAR-5 ovarian
PC-3 prostate = tested on: PC-3 prostate
BT-549 breast = tested on: BT-549 breast
HL-60(TB) leukemia = tested on: HL-60(TB) leukemia

| SMILES | GI50 (A549 NSCLC) [µM] | TGI (A549 NSCLC) [µM] | GI50 (LOX IMVI melanoma) [µM] | TGI (LOX IMVI melanoma) [µM] | GI50 (MCF7 breast) [µM] | TGI (MCF7 breast) [µM] | GI50 (MDA-MB-435) [µM] | TGI (MDA-MB-435) [µM] | GI50 (MOLT-4 leukemia) [µM] | TGI (MOLT-4 leukemia) | GI50 (NCI-H23 lung) [µM] | TGI (NCI-H23 lung) [µM] | GI50 (OVCAR-5 ovarian) [µM] | TGI (OVCAR-5 ovarian) [µM] | GI50 (PC-3 prostate) [µM] | TGI (PC-3 prostate) [µM] | TGI (BT-549 breast) [µM] | GI50 (HL-60(TB) leukemia) [µM] | TGI (HL-60(TB) leukemia) | GI50 (BT-549 breast) [µM] |
| --- | --- | --- | --- | --- | --- | --- | --- | --- | --- | --- | --- | --- | --- | --- | --- | --- | --- | --- | --- | --- |
| O=C(Nc1cc(Cl)cc(Cl)c1)c1cccc(NC2=C(Cl)C(=O)N(Cc3ccccc3)C2=O)c1 | 36.3 | > 100 | 12.1 | > 100 | 21.7 | > 100 | 21.8 | 88.1 | 4.15 | > 100 µM | 27.8 | > 100 | > 100 | > 100 | 19.6 | > 100 | – | – | – | – |
| O=C1NC2(CCCCC2)C(=O)N1CCN(CCCl)CCCl | > 25 | > 250 | > 25 | > 250 | > 25 | > 250 | – | > 25 | 7.1 | 22.5 µM and 196 µM | 24.8 | – | > 25 | > 250 | – | > 25 | > 25 | 11.8 | 25 µM and 183 µM | – |
| COc1cc(/C=C(\NC(=O)c2ccccc2)c2nc3ncncc3[nH]2)cc(OC)c1OC | – | > 100 | – | – | – | – | – | – | – | > 100 µM | – | > 100 | – | > 100 | – | – | – | – | > 100 µM | – |
| NS(=O)(=O)c1ccc(NC(=O)C2C(=O)C(=O)N(c3ccc(S(N)(=O)=O)cc3)C2=O)cc1 (stereo not drawn) | – | > 100 | – | > 100 | – | – | – | – | – | > 100 µM | – | > 100 | – | > 100 | – | – | – | – | – | – |
| Cc1ccc(Cl)c(NS(=O)(=O)c2ccc(-c3cnc(C4CC4)o3)cc2)c1 | 0.146 | > 100 | 0.226 | 18.5 | 0.0407 | 25.9 | 0.0382 | 2.23 | 0.166 | > 48.3 µM | 0.365 | 62.8 | 0.439 | > 100 | 0.077 | > 68.6 | 14.8 | 0.0451 | – | 0.299 |
| Nc1ncc(-c2ccc3ncnc(N4CCc5ccc(Cl)cc54)c3c2)cc1C(F)(F)F | 1.29 | 14 | 0.734 | 11.9 | 0.375 | 14.9 | 1.68 | 13.5 | 1.63 | > 100 µM | 3.79 | 29.4 | 0.916 | 14.4 | 0.84 | 16 | 17.2 | 0.723 | > 100 µM | 1.82 |
| COc1ccccc1/C=C\C(=O)C1COCN1 (stereo not drawn) | – | 48.8 | – | 38.1 | – | 36.8 | – | 26.4 | – | > 100 µM | – | > 100 | – | 67.4 | – | 29.1 | – | – | > 100 µM | – |
| COc1cc2c(c(OC)c1OC)-c1ccc(SC)c(=O)cc1[C@@H](NC(=O)C(F)(F)F)CC2 | – | > 100 | – | > 87.3 | – | > 82.2 | – | – | – | > 27.2 µM | – | > 4.64 | – | > 100 | – | > 100 | > 100 | – | 0.194 µM | – |
| CC(C)COC1Sc2ccccc2S1 | – | 46.6 | – | 37.9 | – | – | – | – | – | > 100 µM | – | 53.4 | – | – | – | – | – | – | – | – |
